Assay: gradient 5% acetonitrile 3 min, to 50% in 2 min, to 85% in 15 min, held 3 min, 100 µL/min
Settings: column: Zorbax Extend-C18 2.1 x 50 mm; eluents: water / acetonitrile, 0.1% formic acid
Outline: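 The system's dead and dwell volumes were 40 μL and 900 μL, with a Zorbax Extend-C18 column (2.1 × 50 mm, 1.8 μm) run at 100 μL/min in water and acetonitrile containing 0.1% formic acid each. Pure standards were analyzed in mixtures of ~100 molecules by HPLC–quadrupole time-of-flight mass spectrometry in positive and negative ionization mode. Retention time was assigned from computationally picked, manually inspected adduct peaks.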

| Compound | RP-LC retention time [s] |
| --- | --- |
| CCOC(=O)CNC(=O)N1CCCN(c2nc3cc(Br)ccc3n3cccc23)CC1 | 671 |
| CN(c1nccn2c(=O)n(CC(=O)Nc3ccc4c(c3)OCO4)nc12)C1CCCCC1 | 716 |
| CCC(=O)N(C1CCOCC1)C1CCN(S(=O)(=O)c2ccc(F)cc2)CC1 | 792 |
| CNC(=O)C1Cc2ccccc2N1C(=O)c1ccccc1SC(F)F (stereo not given) | 715 |
| COc1ccc(CN2C[C@@H]3C(=O)N(Cc4ccc5c(c4)OCO5)C(=O)[C@@H]3C2)cc1OC | 659 |
| Cc1cccn2cc(C(=O)NCCC(C)C)nc12 | 712 |
| O=S(=O)(Cc1ccc(Cl)cc1)N1CCc2nc(-c3ccc(F)cc3)ncc2C1 | 1100 |
| CCCN1C(=O)C(NC(=O)c2ccccc2OC)(C(F)(F)F)C(C(=O)OC)=C1C (stereo not given) | 935 |
| CCOC(=O)c1cc(C)n(CC(=O)N2CCOCCNC(=O)CC2)c1C | 652 |
| O=C(CC1CCN(S(=O)(=O)c2ccc(Cl)s2)CC1)N1CCCCCC1 | 1000 |
| C[C@]12CCC(=O)C[C@@H]1CC[C@@H]1[C@@H]2CC[C@@]2(C)[C@H]1CC[C@]2(C)O | 1050 |
| NC(=O)CSc1nnnn1-c1ccccc1 | 590 |
| CS(=O)(=O)N1CCCC(C(=O)Nc2ccc(Cl)cc2C(=O)c2ccccc2)C1 (stereo not given) | 869 |
| O=C(COc1ccc(F)cc1)NCC1(O)CCCC1 | 667 |
| Cc1ccc(F)cc1S(=O)(=O)Nc1cccn2c(C3CCC3)nnc12 | 817 |
| CCCNC(=O)C1CCN(c2ccc(SCC(=O)Nc3cccc(Cl)c3C)nn2)CC1 | 678 |
| CCOc1cccc(CNC(=O)c2sc3ncccc3c2-n2cccc2)c1 | 1050 |
| Cc1oc(-c2[nH]ncc2C(=O)N2CCCC2)cc1S(=O)(=O)Nc1ccccc1F | 676 |
| Cc1cc(C)cc(-c2nc(C3CC(=O)N(c4ccc(F)c(Cl)c4)C3)no2)c1 (stereo not given) | 1050 |
| COc1cccc(S(=O)(=O)N2CCC(N3C[C@H](OC)[C@@H]3c3ccncc3)CC2)c1 | 625 |

| Compound | RP-LC retention time [s] |
| --- | --- |
| CCN1CCN(CC2CCN(S(=O)(=O)Cc3ccc(Cl)cc3)CC2)CC1 | 610 |
| CCCN(CC1CCOC1)C(=O)c1ccc(F)cc1Cl (stereo not given) | 773 |
| CCC(c1cccs1)N1C(=O)[C@H]2CN(S(=O)(=O)c3cccc(OC)c3)C[C@H]2C1=O (stereo not given in full) | 1010 |
| CC(=O)Nc1ccc(SCCCC(=O)N2CCc3ccccc32)nn1 | 706 |
| CCc1nc2cc(-c3noc(Cc4ccc(Cl)cc4)n3)ccc2o1 | 1140 |
| O=C(c1cccs1)N1CCC(c2noc(-c3cnccn3)n2)C1 (stereo not given) | 678 |
| CCc1ccc(Oc2cc(N3CCC(C(=O)NCCCOC(C)C)CC3)ncn2)cc1 | 903 |
| CC1CCN(S(=O)(=O)c2ccc3nn(Cc4cccc(C#N)c4)c(=O)n3c2)CC1 | 768 |
| COc1ccc(-c2ncc3c(n2)CCN(S(=O)(=O)c2ccc(OC)cc2)C3)cc1 | 991 |
| COc1ccccc1NC(=O)N1C[C@@H](F)C[C@H]1C(=O)N1CCOCC1 | 625 |
| Cc1ccc(Cc2noc(CN3CCCC3=O)n2)cc1 | 758 |
| Cc1ccc(CCNC(=O)c2cc3n(n2)CC(C)(C(=O)NC2CCCC2)N(C)C3=O)cc1 (stereo not given) | 809 |
| CCc1ccc(CNC(=O)CN2CCc3ccccc3C2C(=O)N2CCCC2)cc1 (stereo not given) | 860 |
| Cc1ccc(-c2nccn3cc(C(=O)NC4CC4)nc23)cc1 | 803 |
| c1ccc2c(c1)CCN(c1nccnc1OC1CCNC1)C2 (stereo not given) | 649 |
| COc1cc(C(=O)NCC(c2cccs2)N2CCOCC2)c([N+](=O)[O-])cc1OC (stereo not given) | 565 |
| CC(C)N1CCN(C(=O)c2csc(N3CCN(c4ccccc4)CC3)n2)CC1 | 578 |
| O=C(CC1CCCC1)N1CC(c2nc(-c3ccccc3)no2)C2(CCOCC2)C1 (stereo not given) | 923 |
| O=C(NCc1ccccn1)C1CCc2sc(C(=O)N3CCCCCC3)cc2C1 (stereo not given) | 552 |
| Cn1c(=O)c(=O)n(C)c2cc(N3CCCCC3)c(NC(=O)CN3CCCC3)cc21 | 599 |

| Compound | RP-LC retention time [s] |
| --- | --- |
| Oc1ccc(-c2ccc(F)cc2)cc1CN1CCCCCC1 | 694 |
| COc1ccc(-c2[nH]ncc2CN2CCC3(CC2)CC(C)(O)CCO3)cc1 (stereo not given) | 588 |
| Cc1cccc(CNC(=O)c2ncn3c2C(=O)N(C2CC2)C(C)(C(=O)NC2CCCC2)C3)c1 (stereo not given) | 784 |
| O=C(NC1CCN(c2ccc(F)cc2)C1=O)c1ccccc1C(F)(F)F (stereo not given) | 823 |
| CCOC(=O)c1c(C)[nH]c(CCC(=O)NCCc2cccs2)c1C | 822 |
| c1ccc(Nc2nc(-c3ccc4c(c3)OCO4)cs2)nc1 | 849 |
| O=C(NCCN1CCOCC1)C1CCN(c2nc3cccnc3s2)CC1 | 570 |
| Clc1ccc(CCCOCCCN2CCCCC2)cc1 | 744 |
| COC(=O)c1cnc2nc(C)ccc2c1Nc1cc(F)ccc1F | 669 |
| CCN1CCN(C2CCN(C(=O)c3cc(F)ccc3Cl)CC2)C1=O | 705 |
| CCCNC(=O)Nc1ccc(NC(=O)N2CCC(C(=O)NCC)CC2)cc1 | 588 |
| CCc1ccc(S(=O)(=O)N2CCc3nc(CNC(=O)C4CCC4)n(C)c3C2)cc1 | 652 |
| COc1cc(CNC(=O)C2CCCN(c3nccnc3Sc3ccc(C)cc3)C2)cc(OC)c1 (stereo not given) | 1060 |
| O=C(O)c1ccc(S(=O)(=O)N2CCc3ccccc3C2)cc1 | 773 |
| O=C(c1ccc(Cl)cc1)N1CCN(c2cc(-c3ccc(Cl)cc3)[nH]n2)CC1 | 936 |
| CNC(=O)C1CN(C(=O)Cc2c[nH]c3ccccc23)CC12CCCC2 (stereo not given) | 596 |
| Cc1nc(N2CCOCC2)c2c(C(=O)N3CCN(c4cc(Cl)ccc4C)CC3)c(C)oc2n1 | 983 |
| COc1ccc(C(=O)NC2CCN(c3cc(-c4ccc(Cl)cc4)[nH]n3)C2)cc1OC (stereo not given) | 738 |

More lines, now with the values ahead:

| RP-LC retention time [s] | Compound |
| --- | --- |
| 694 | Cc1ccc(CNC(=O)Cn2c(C(C)C)nc3c(c2=O)CN(Cc2ccccc2)CC3)cc1 |
| 1120 | Cc1cc(=O)n(CC(=O)Nc2ccc(F)cc2)c(-c2ccc(Cl)cc2)n1 |
| 573 | Cc1ccc(C(O)CN2CCN(c3ccccn3)CC2)c(C)c1 (stereo not given) |
| 684 | CCC[C@H](NC(=O)/C(C#N)=C/c1cccc(Br)n1)c1ccccc1 |
| 957 | Cc1ccc(NC(=O)CSc2nnc3c4cc(-c5ccccc5)nn4ccn23)c(Cl)c1 |
| 871 | CCn1c(=O)c(C(=O)NCc2ccccc2Br)nc2cccnc21 |
| 993 | CCCN1C(=O)COc2ccc(-c3noc(Cc4ccc(OC)c(OC)c4)n3)cc21 |
| 1100 | CCOC(=O)c1noc2nc(C)nc(NCc3ccccc3OC)c12 |
| 753 | CN(C)C(=O)c1ccc2c(c1)N(CC(=O)Nc1ccc(Cl)cc1)C(=O)CS2 |
| 976 | Cc1ccc(NC(=O)Cn2nc(N3CCSCC3)c3ccccc3c2=O)cc1F |
| 795 | COCCn1cc(CCNC(=O)Nc2cc(Cl)ccc2C)c2cccnc21 |
| 688 | Cn1c(C2CCN(C(=O)c3cccc(Cl)c3)C2)nc2cccnc21 (stereo not given) |
| 896 | Cc1ccc(C)c2sc(N(C)CC(=O)Nc3ccc(-n4cnnn4)cc3)nc12 |
| 890 | CC(=O)NCc1ccc(-c2noc(Cc3ccc(Br)cc3)n2)s1 |
| 1090 | Cc1cc2occ(CN(C)CCN(C)Cc3cn(-c4cccc(C(F)(F)F)c4)c4ccccc34)c(=O)c2cc1C |
| 741 | Cc1ccccc1NC(=O)C1CCN(C(=O)C2Sc3ccccc3NC2=O)CC1 (stereo not given) |

| RP-LC retention time [s] | Compound |
| --- | --- |
| 847 | CCOc1ccc(-c2cc(=O)n(CCCC(=O)Nc3cccc(SC)c3)cn2)cc1 |
| 820 | Cc1nc(Cn2cccc2C(=O)Nc2ccccc2)no1 |
| 1140 | Cc1cccc(-c2noc(C3CCCN3C(=O)c3cccc(Cl)c3)n2)c1 (stereo not given) |
| 840 | COc1cccc(S(=O)(=O)N2C[C@@H]3C[C@H]2C[C@@H]3NC(=O)c2ccccc2)c1 |
| 1010 | CC1Oc2ccc(-c3csc(NC(=O)CCc4ccccc4)n3)cc2N(C)C1=O (stereo not given) |
| 819 | Cc1cc2c(=O)n(CC(=O)Nc3cccc(Cl)c3C)ccc2s1 |
| 963 | CCOc1ccc(N2C(=O)C3N=NN(Cc4nc(-c5ccc6c(c5)OCO6)no4)C3C2=O)cc1 (stereo not given) |
| 736 | CCOC(=O)c1nc(Nc2ccc(OC)c(OC)c2)c2ccccc2n1 |
| 853 | CCCC(=O)Nc1nc(-c2ccc3c(c2)N(CC)C(=O)CO3)cs1 |
| 974 | CSc1ccc(-c2nc3cnccn3c2Nc2ccccc2C)cc1 |
| 713 | Cc1ccc(-c2cc3c(=O)n(Cc4noc(CN5CCC(C)CC5)n4)ccn3n2)cc1 |
| 847 | CC(C)CNC(=O)CCc1nc2ccccc2n(CC(=O)NCc2ccccc2Br)c1=O |
| 1250 | COc1ccc(-c2noc(Cc3nc(-c4ccc(C)cc4)cs3)n2)cc1 |
| 674 | Cc1ccc(NC(=O)Nc2cnn(-c3ncncc3N3CCOCC3)c2)cc1C |
| 638 | CCc1nc(N)n(CC(=O)Nc2cccc(C)c2C)c(=O)c1C |
| 824 | Cc1cccc(NC(=O)Cc2c(C)n(C)c3nc(-c4ccccc4)nn3c2=O)c1 |

Reference: the METLIN SMRT retention time set (Domingo-Almenara et al. 2019)
